The values that follow come from ChEMBL document CHEMBL4190316, “Synthesis and biological evaluation of 4-biphenylamino-5-halo-2(5H)-furanones as potential anticancer agents” (Eur J Med Chem, 2017).

One data set has as its system HepG2. As to the kind of experiment: Cytotoxicity against human HepG2 cells assessed as reduction in cell viability after 72 hrs by MTT assay. Format: functional, cell-based. Conditions: HepG2, 72 h. A general note: Tetrazolium dyes change colour on reduction, which living cells bring about.
A further data set relates to HaCaT. In words: Cytotoxicity against human HaCaT cells assessed as reduction in cell viability after 72 hrs by MTT assay. Format: cell-based.
The test system of another data set is MDA-MB-231. As to the kind of experiment: Cytotoxicity against human MDA-MB-231 cells assessed as reduction in cell viability after 72 hrs by MTT assay. The class given is functional, cell-based. To be noted: MDA-MB-231, 72 h.
A further data set relates to CNE. In words: Cytotoxicity against human CNE1 cells assessed as reduction in cell viability after 72 hrs by MTT assay. Format: functional, cell-based.
Data set [1] can be described thus: Octanol-water partition coefficient, log P of the compound at 10 mM after 24 hrs by UV-vis spectroscopic method. The class given is physicochemical.
Another data set has as its system MCF7. In words: Cytotoxicity against human MCF7 cells assessed as reduction in cell viability after 72 hrs by MTT assay. The class given is functional, cell-based. To be noted: MCF7, 72 h.
The subject of the next data set is C6. As to the kind of experiment: Cytotoxicity against rat C6 cells assessed as reduction in cell viability after 72 hrs by MTT assay. The class given is functional, cell-based. To be noted: C6, 72 h.
Data set [2] can be described thus: Cytotoxicity against human NCI-EC1 cells assessed as reduction in cell viability after 72 hrs by MTT assay. Format: functional, cell-based.
Data set [3] deals with Quadruplex DNA. In words: Binding affinity to c-Myc G-quadruplex DNA (unknown origin) at 20 uM incubated for 3 mins by electronic absorption spectra method. The class given is nucleic-acid assay.
Data set [4] has as its system Quadruplex DNA. As to the kind of experiment: Effect on conformation of c-Myc G-quadruplex DNA (unknown origin) at 1 mM measured every 3 mins by CD spectroscopic analysis. The class given is nucleic-acid assay.
Data set [5] has as its system Quadruplex DNA. As to the kind of experiment: Binding affinity to c-Myc G-quadruplex DNA (unknown origin) assessed as hypochromism at 20 uM incubated for 3 mins by electronic absorption spectra method. Format: nucleic-acid assay.
For data set [6], the system named is Quadruplex DNA. In words: Binding affinity to c-Myc G-quadruplex DNA (unknown origin) at 20 uM incubated for 2 mins by fluorescence emission spectra method. Format: nucleic-acid assay.

Calls of active or inactive are those of the source. No cut-off for these calls is given here.

The IC50 is the midpoint of a concentration-inhibition curve. For orientation: logP means a log measure of how a compound divides between an organic and an aqueous phase. A higher logP goes with higher lipophilicity.

Regarding `COC1OC(=O)C(Br)=C1Nc1ccc(-c2ccccc2)cc1` (stereo not given), the IC50 in the data set on HepG2 came out at 45.2 µM; in the data set on HaCaT it was 67.5 µM; in the data set with MDA-MB-231, 97.5 µM; with CNE, 52.6 µM; in the data set on MCF7 it was 37.8 µM; with C6, 37.9 µM. Further, the IC50 in [2] turned out to be 48 µM. This compound displayed a logP at 24 h, 10000 µM in [1] of 1.33.

In the case of `COC1OC(=O)C(Br)=C1Nc1ccc(-c2ccc(N)cc2)cc1` (stereo not given), the half-inhibitory concentration (IC50) in the data set with HepG2 is 82.3 µM; with HaCaT, 69.6 µM; in the data set with MDA-MB-231, more than 100 µM; in the data set with CNE, 68.6 µM; with MCF7 it was 59.6 µM; in the data set with C6, 64.2 µM. The IC50 in data set [2] is more than 100 µM. The logP at 24 h, 10000 µM in [1] stood at 1.46.

For the compound `COC1OC(=O)C(Cl)=C1Nc1ccc(-c2ccc(N)cc2)cc1` (stereo not given), the IC50 is more than 100 µM in the data set on HepG2; more than 100 µM in the data set on HaCaT; more than 100 µM in the data set on MDA-MB-231; more than 100 µM in the data set on CNE; more than 100 µM in the data set with MCF7; 64.8 µM in the data set with C6. In addition, the IC50 in data set [2] was more than 100 µM. The same compound returned a logP at 24 h, 10000 µM in data set [1] of 0.913.

For `COC1OC(=O)C(Cl)=C1Nc1ccc(-c2ccccc2)cc1` (stereo not given), the concentration for half-maximal inhibition (IC50) in the data set on HepG2 turned out to be 35.8 µM; in the data set on HaCaT it was 41.2 µM; in the data set on MDA-MB-231 it was 66.5 µM; with CNE, 53.5 µM; in the data set on MCF7, 40.6 µM; in the data set on C6, 36.3 µM. Moreover, the IC50 in data set [2] was 32.2 µM. This compound also showed a logP at 24 h, 10000 µM in data set [1] of 1.5.

Turning to `CCOC1OC(=O)C(Br)=C1Nc1ccc(-c2ccccc2)cc1` (stereo not given), the IC50 in the data set with HepG2 is 34.9 µM; in the data set on HaCaT, 50.8 µM; in the data set on MDA-MB-231 it was 70.4 µM; with CNE, 41.8 µM; in the data set with MCF7, 46.6 µM; in the data set on C6, 27.4 µM. Besides, in data set [2], the IC50 was found to be 55 µM. Moreover, the logP at 24 h, 10000 µM in [1] is 1.74.

Turning to `CCOC1OC(=O)C(Cl)=C1Nc1ccc(-c2ccc(N)cc2)cc1` (stereo not given), the IC50 was more than 100 µM in the data set on HepG2; 44.8 µM in the data set with HaCaT; 37.7 µM in the data set on MDA-MB-231; more than 100 µM in the data set on CNE; more than 100 µM in the data set with MCF7; 49.6 µM in the data set on C6. Also, in data set [1], the logP at 24 h, 10000 µM is 1.64.

Regarding `CC(=O)OC1OC(=O)C(Br)=C1Nc1ccc(-c2ccccc2)cc1` (stereo not given), the IC50 with HepG2 worked out at 27.4 µM; in the data set on HaCaT, 91.4 µM; in the data set with MDA-MB-231 it was 60.2 µM; in the data set with CNE, 81.7 µM; in the data set on MCF7 it was 37.3 µM; with C6, 44.4 µM. Besides, the IC50 in [2] was determined as 34.9 µM. This compound also showed a K with Quadruplex DNA [3] of 9.4 ×10⁶ /M. The outcome in the data set on Quadruplex DNA [4] was inactive. Also, the logP at 24 h, 10000 µM in data set [1] was 1.31. Moreover, in the data set on Quadruplex DNA [5], the Activity worked out at 17%. Also, the result with Quadruplex DNA [6] was Active.

On to `CCOC1OC(=O)C(Br)=C1Nc1ccc(-c2ccc(N)cc2)cc1` (stereo not given), for which the IC50 in the data set on HepG2 stood at 55.8 µM; in the data set on HaCaT it was 70.8 µM; in the data set on MDA-MB-231, 48.6 µM; with CNE, 90.1 µM; with MCF7, 58.1 µM; in the data set with C6, 56.9 µM. Further, the IC50 in [2] was 82.8 µM. In data set [1], this compound displayed a logP at 24 h, 10000 µM of 1.58.

`CCOC1OC(=O)C(Cl)=C1Nc1ccc(-c2ccccc2)cc1` (stereo not given): the IC50 in the data set on HepG2 stood at 40.1 µM; with HaCaT, 49.8 µM; with MDA-MB-231, 38.5 µM; with CNE it was 47 µM; in the data set with MCF7, 44.6 µM; in the data set with C6, 47.9 µM. The IC50 in data set [2] turned out to be 56 µM. This compound also returned a logP at 24 h, 10000 µM in data set [1] of 1.33.
